Patent publication US10189845B2, “4,6-substituted-pyrazolo[1,5-a]pyrazines as janus kinase inhibitors” (ARRAY BIOPHARMA INC., priority 2014, dated 2019)
Where a name gives a salt, the structure may show the parent alone. Read-outs that look alike come from different tables or passages of the source.

Legend:
Format in all cases: biochemical
[1] = biological target: Human Tyk2 kinase domain (Homo sapiens (Human), UniProt P29597); experiment: Tyk2 Inhibition Assay (Example A, Omnia kinase fluorescence peptide substrate assay); conditions: TYK2 Enzyme IC50 1 mM ATP, averaged IC50 ranges
Human Tyk2 kinase domain, sequence (P29597 886-1187): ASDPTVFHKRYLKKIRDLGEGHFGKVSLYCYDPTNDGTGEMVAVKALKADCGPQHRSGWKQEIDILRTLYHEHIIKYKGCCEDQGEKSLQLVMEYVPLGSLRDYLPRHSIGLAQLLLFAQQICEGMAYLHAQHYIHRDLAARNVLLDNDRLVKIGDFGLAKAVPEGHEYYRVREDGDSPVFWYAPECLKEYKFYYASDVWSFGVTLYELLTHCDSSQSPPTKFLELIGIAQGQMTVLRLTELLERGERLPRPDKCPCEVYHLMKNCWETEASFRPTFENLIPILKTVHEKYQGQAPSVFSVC
Summary of the method: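 IC50 values come from a 4-parameter logistic fit of percent-of-control data, with compounds at 2% final DMSO. Reactions held 1 nM His-tag-cleaved Tyk2 (aa 886–1187), 8 μM Omnia Y12 peptide and 1 mM ATP in pH 7.4 HEPES buffer with 10 mM MgCl2, Triton X-100 and DTT. Sox fluorescence (360/485 nm) was monitored kinetically over 45 min.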

[2] = biological target: JAK1 (Homo sapiens (Human), UniProt P23458); experiment: JAK1 Inhibition Assay (Example B, Omnia kinase fluorescence peptide substrate assay)
JAK1, sequence (P23458 whole entry): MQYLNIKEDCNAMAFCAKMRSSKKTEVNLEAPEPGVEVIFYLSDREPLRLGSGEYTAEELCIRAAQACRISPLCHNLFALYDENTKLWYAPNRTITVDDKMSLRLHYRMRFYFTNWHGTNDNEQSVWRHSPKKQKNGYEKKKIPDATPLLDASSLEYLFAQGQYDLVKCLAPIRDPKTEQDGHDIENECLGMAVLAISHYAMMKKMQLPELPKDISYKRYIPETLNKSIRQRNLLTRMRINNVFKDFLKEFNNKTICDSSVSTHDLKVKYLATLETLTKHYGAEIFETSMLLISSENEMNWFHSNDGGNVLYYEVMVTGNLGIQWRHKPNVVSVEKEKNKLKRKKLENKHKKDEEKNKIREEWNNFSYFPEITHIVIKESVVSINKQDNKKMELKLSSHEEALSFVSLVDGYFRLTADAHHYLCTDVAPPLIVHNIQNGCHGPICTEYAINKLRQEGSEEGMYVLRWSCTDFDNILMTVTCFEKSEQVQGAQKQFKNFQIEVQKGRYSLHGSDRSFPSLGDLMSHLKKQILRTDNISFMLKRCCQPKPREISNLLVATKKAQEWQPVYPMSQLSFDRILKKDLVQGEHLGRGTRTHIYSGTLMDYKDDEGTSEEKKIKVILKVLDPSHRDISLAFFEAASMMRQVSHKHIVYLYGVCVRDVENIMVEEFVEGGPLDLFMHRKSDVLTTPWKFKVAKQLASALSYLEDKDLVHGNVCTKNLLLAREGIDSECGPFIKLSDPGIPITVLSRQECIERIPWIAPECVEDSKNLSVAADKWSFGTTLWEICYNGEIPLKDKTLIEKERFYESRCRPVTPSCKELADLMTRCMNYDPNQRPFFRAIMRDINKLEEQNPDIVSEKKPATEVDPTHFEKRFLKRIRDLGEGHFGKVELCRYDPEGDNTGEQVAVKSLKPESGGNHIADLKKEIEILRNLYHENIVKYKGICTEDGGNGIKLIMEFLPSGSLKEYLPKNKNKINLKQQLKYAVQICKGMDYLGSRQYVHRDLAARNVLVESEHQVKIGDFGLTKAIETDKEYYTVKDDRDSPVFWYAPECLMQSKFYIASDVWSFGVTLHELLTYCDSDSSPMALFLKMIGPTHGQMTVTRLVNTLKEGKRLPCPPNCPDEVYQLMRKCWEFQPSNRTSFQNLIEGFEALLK
Summary of the method: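 Kinetic fluorescence read (360 nm excitation, 485 nm emission, every 50 s over 45 min) of Omnia Y12 peptide (8 μM) phosphorylation by 12.5 nM human JAK1 at 1 mM ATP. Buffer: HEPES pH 7.4, MgCl2, Triton X-100, DTT; 2% DMSO. IC50 = concentration giving 50 POC on logistic curve.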

[3] = biological target: JAK2 (Homo sapiens (Human), UniProt O60674); experiment: JAK2 Inhibition Assay (Example C, Omnia kinase fluorescence peptide substrate assay); conditions: JAK2 Enzyme IC50 1 mM ATP, averaged IC50 ranges
JAK2, sequence (O60674 whole entry): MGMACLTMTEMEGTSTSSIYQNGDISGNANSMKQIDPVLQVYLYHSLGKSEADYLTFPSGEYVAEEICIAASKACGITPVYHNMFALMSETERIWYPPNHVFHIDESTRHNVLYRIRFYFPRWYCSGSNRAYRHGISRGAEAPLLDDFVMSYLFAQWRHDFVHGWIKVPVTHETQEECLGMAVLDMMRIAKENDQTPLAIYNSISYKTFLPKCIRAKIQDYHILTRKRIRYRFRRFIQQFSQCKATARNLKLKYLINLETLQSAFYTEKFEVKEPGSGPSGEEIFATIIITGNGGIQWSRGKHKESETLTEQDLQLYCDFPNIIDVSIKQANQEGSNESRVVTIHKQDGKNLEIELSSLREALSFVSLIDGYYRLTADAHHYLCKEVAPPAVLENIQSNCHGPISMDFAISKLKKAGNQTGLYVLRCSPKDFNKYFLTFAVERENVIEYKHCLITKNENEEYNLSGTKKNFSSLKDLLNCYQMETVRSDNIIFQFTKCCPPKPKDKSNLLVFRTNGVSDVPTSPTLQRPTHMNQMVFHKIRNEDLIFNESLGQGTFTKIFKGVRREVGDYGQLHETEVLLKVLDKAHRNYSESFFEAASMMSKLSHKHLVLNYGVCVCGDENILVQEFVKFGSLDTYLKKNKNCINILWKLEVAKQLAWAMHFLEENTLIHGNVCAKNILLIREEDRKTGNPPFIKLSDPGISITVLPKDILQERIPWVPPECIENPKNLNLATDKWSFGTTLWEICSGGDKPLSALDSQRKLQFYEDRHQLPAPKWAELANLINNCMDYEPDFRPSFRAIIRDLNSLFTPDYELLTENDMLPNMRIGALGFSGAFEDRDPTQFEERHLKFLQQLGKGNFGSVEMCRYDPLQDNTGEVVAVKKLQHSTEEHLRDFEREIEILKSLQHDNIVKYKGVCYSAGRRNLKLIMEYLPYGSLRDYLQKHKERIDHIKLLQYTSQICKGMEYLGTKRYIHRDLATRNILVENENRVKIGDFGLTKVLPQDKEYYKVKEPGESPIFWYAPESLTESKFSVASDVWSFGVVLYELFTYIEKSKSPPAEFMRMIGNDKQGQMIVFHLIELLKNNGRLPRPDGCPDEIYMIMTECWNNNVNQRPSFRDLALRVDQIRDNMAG
Summary of the method: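 Kinetic fluorescence read of Omnia Y7 peptide (10 μM) phosphorylation, ex 360/em 485 nm every 50 s over 45 min, by 4 nM JAK2 at 1 mM ATP. Buffer 25 mM HEPES pH 7.4, 10 mM MgCl2, 0.01% Triton X-100, 1 mM DTT; final DMSO 2%. Percent-of-control values fitted by 4-parameter logistic for IC50.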

[4] = biological target: JAK3 (Homo sapiens (Human), UniProt P52333); experiment: JAK3 Inhibition Assay (Example D, Omnia kinase fluorescence peptide substrate assay)
JAK3, sequence (P52333 whole entry): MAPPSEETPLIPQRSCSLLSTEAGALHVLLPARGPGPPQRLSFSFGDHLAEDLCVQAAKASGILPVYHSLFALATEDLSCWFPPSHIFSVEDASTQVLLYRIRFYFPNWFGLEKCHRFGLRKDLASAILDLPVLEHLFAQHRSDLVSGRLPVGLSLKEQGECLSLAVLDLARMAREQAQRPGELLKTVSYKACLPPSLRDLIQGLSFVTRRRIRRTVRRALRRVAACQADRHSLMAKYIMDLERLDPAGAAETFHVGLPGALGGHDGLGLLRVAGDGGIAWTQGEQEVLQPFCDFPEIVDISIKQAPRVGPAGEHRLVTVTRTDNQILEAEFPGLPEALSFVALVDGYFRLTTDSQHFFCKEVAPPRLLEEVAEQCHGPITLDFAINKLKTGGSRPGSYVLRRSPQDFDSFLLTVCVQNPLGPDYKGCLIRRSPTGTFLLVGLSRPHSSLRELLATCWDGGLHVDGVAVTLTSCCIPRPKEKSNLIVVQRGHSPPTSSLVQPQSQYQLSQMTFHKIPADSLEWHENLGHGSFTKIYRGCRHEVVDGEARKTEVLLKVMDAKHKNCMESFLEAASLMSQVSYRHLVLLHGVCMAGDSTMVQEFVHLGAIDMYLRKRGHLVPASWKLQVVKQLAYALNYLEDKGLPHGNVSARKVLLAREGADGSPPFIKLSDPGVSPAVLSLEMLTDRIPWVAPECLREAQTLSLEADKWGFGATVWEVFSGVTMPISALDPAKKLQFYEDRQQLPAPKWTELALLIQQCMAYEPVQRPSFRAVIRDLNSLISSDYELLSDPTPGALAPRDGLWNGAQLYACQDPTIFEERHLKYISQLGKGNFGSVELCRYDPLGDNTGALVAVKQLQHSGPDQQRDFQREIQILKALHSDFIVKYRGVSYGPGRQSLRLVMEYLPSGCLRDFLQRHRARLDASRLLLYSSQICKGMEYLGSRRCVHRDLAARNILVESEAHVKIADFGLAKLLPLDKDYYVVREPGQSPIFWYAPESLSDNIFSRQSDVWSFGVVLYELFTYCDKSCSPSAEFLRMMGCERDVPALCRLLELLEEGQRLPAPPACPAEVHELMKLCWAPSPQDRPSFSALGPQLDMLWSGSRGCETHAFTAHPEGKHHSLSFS
Summary of the method: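 Omnia Sox-peptide kinetic read (ex 360 nm, em 485 nm, every 50 s over 45 min) tracked phosphorylation of 10 μM Y7 peptide by 2 nM recombinant JAK3 at 1 mM ATP. Buffer: 25 mM HEPES pH 7.4, 10 mM MgCl2, 0.01% Triton X-100, 1 mM DTT, with 2% DMSO final.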

[5] = JAK1 Enzyme IC50 1 mM ATP, 1 mM ATP, averaged IC50 ranges

| Structure (SMILES) | IC50 [1] [nM] | IC50 [2, 5] [nM] | IC50 [3] [nM] | IC50 [4] [nM] | IC50 [2] [nM] |
| --- | --- | --- | --- | --- | --- |
| CC[C@H](n1cc(-c2nc(-c3cnn(C[C@@H](O)CO)c3)cn3nccc23)cn1)C(C)(F)F [Example 198, (R)-3-(4-(4-(1-((S)-2,2-difluoropentan-3-yl)-1H-pyrazol-4-yl)pyrazolo[1,5-a]pyrazin-6-yl)-1H-pyrazol-1-yl)propane-1,2-diol] | 100 to 1000 | 1000 to 10000 | 100 to 1000 | 1000 to 10000 | – |
| CCC(CC)n1cc(-c2nc(-c3cnn(CC(C)(C)O)c3)cn3nccc23)cn1 [Example 117, 2-methyl-1-(4-(4-(1-(pentan-3-yl)-1H-pyrazol-4-yl)pyrazolo[1,5-a]pyrazin-6-yl)-1H-pyrazol-1-yl)propan-2-ol] | 100 to 1000 | – | 100 to 1000 | 1000 to 10000 | 100 to 1000 |
| CCC(CC)n1cc(-c2nc(-c3cnn(C4CN(C(=O)CN)C4)c3)cn3nccc23)cn1 [Example 186, 2-amino-1-(3-(4-(4-(1-(pentan-3-yl)-1H-pyrazol-4-yl)pyrazolo[1,5-a]pyrazin-6-yl)-1H-pyrazol-1-yl)azetidin-1-yl)ethanone] | 10 to 100 | – | 10 to 100 | 1000 to 10000 | 1000 to 10000 |
| CCC(C1CC(F)(F)C1)n1cc(-c2nc(-c3cnn(C[C@@H](O)CO)c3)cn3nccc23)cn1 (stereo partly drawn) [Example 79, (2R)-3-(4-(4-(1-(1-(3,3-difluorocyclobutyl)propyl)-1H-pyrazol-4-yl)pyrazolo[1,5-a]pyrazin-6-yl)-1H-pyrazol-1-yl)propane-1,2-diol] | 10 to 100 | – | 10 to 100 | 1000 to 10000 | 10 to 100 |
| CC(C)C[C@@H](C)n1cc(-c2nc(-c3cnn(C[C@H](O)CO)c3)cn3nccc23)cn1 [Example 78, (S)-3-(4-(4-(1-((R)-4-methylpentan-2-yl)-1H-pyrazol-4-yl)pyrazolo[1,5-a]pyrazin-6-yl)-1H-pyrazol-1-yl)propane-1,2-diol] | 100 to 1000 | 1000 to 10000 | 100 to 1000 | 1000 to 10000 | – |
| CCC(CC)n1cc(-c2nc(-c3cnn(C[C@H]4COCCN4)c3)cn3nccc23)cn1 [Example 30, (S)-3-((4-(4-(1-(pentan-3-yl)-1H-pyrazol-4-yl)pyrazolo[1,5-a]pyrazin-6-yl)-1H-pyrazol-1-yl)methyl)morpholine] | 10 to 100 | – | 10 to 100 | 1000 to 10000 | 100 to 1000 |
| CCC(CC)n1cc(-c2nc(-c3cnn(CC(O)CC(F)(F)F)c3)cn3nccc23)cn1 (centres unmarked) [Example 111, 4,4,4-trifluoro-1-(4-(4-(1-(pentan-3-yl)-1H-pyrazol-4-yl)pyrazolo[1,5-a]pyrazin-6-yl)-1H-pyrazol-1-yl)butan-2-ol] | 10 to 100 | – | 10 to 100 | 1000 to 10000 | 100 to 1000 |
| CCC(CC)n1cc(-c2nc(-c3cnn(C[C@@](C)(O)CO)c3)cn3nccc23)cn1 (single isomer, unassigned) [Example 202] | 10 to 100 | – | 10 to 100 | 1000 to 10000 | 100 to 1000 |
| CCC(CC)n1cc(-c2nc(-c3cnn([C@H]4C[C@H](C(=O)N(C)C)C4)c3)cn3nccc23)cn1 [Example 169, (1r,3r)-N,N-dimethyl-3-(4-(4-(1-(pentan-3-yl)-1H-pyrazol-4-yl)pyrazolo[1,5-a]pyrazin-6-yl)-1H-pyrazol-1-yl)cyclobutanecarboxamide] | 100 to 1000 | – | 100 to 1000 | 1000 to 10000 | 1000 to 10000 |
| CC[C@H](C)n1cc(-c2nc(-c3cnn(C[C@H](O)CO)c3)cn3nccc23)cn1 [Example 70, (S)-3-(4-(4-(1-((S)-sec-butyl)-1H-pyrazol-4-yl)pyrazolo[1,5-a]pyrazin-6-yl)-1H-pyrazol-1-yl)propane-1,2-diol hydrochloride] | 10 to 100 | – | 10 to 100 | 1000 to 10000 | 100 to 1000 |
| CC[C@@H](C)n1cc(-c2nc(-c3cnn(C[C@@H](O)CO)c3)cn3nccc23)cn1 [Example 69, (R)-3-(4-(4-(1-((R)-sec-butyl)-1H-pyrazol-4-yl)pyrazolo[1,5-a]pyrazin-6-yl)-1H-pyrazol-1-yl)propane-1,2-diol] | 100 to 1000 | 1000 to 10000 | 100 to 1000 | 1000 to 10000 | – |
| CC(C)C[C@H](C)n1cc(-c2nc(-c3cnn(C[C@H](O)CO)c3)cn3nccc23)cn1 [Example 76, (S)-3-(4-(4-(1-((S)-4-methylpentan-2-yl)-1H-pyrazol-4-yl)pyrazolo[1,5-a]pyrazin-6-yl)-1H-pyrazol-1-yl)propane-1,2-diol] | 100 to 1000 | 1000 to 10000 | 100 to 1000 | 1000 to 10000 | – |
| CCC(CC)n1cc(-c2nc(-c3cnn(CC(=O)N4CCOCC4)c3)cn3nccc23)cn1 [Example 6, 1-morpholino-2-(4-(4-(1-(pentan-3-yl)-1H-pyrazol-4-yl)pyrazolo[1,5-a]pyrazin-6-yl)-1H-pyrazol-1-yl)ethanone] | 10 to 100 | – | 10 to 100 | 1000 to 10000 | 10 to 100 |
| CCC(CC)n1cc(-c2nc(-c3cnn(C[C@H]4CNCCO4)c3)cn3nccc23)cn1 [compound 128, (R)-2-((4-(4-(1-(pentan-3-yl)-1H-pyrazol-4-yl)pyrazolo[1,5-a]pyrazin-6-yl)-1H-pyrazol-1-yl)methyl)morpholine] | 100 to 1000 | – | 100 to 1000 | 1000 to 10000 | 1000 to 10000 |
| CCC(CC)n1cc(-c2nc(-c3cnn(CCN[C@H]4CCN(C)C4=O)c3)cn3nccc23)cn1 [Example 142, (S)-1-methyl-3-((2-(4-(4-(1-(pentan-3-yl)-1H-pyrazol-4-yl)pyrazolo[1,5-a]pyrazin-6-yl)-1H-pyrazol-1-yl)ethyl)amino)pyrrolidin-2-one] | 10 to 100 | – | 10 to 100 | 1000 to 10000 | 1000 to 10000 |
| CC[C@@H](C)n1cc(-c2nc(-c3cnn(C[C@H](O)CO)c3)cn3nccc23)cn1 [Example 71, (S)-3-(4-(4-(1-((R)-sec-butyl)-1H-pyrazol-4-yl)pyrazolo[1,5-a]pyrazin-6-yl)-1H-pyrazol-1-yl)propane-1,2-diol] | 100 to 1000 | 1000 to 10000 | 100 to 1000 | 1000 to 10000 | – |

Continued, values first:

| IC50 [1] [nM] | IC50 [2, 5] [nM] | IC50 [3] [nM] | IC50 [4] [nM] | IC50 [2] [nM] | Structure (SMILES) |
| --- | --- | --- | --- | --- | --- |
| 10 to 100 | 100 to 1000 | 10 to 100 | 1000 to 10000 | – | CCC(CC)n1cc(-c2nc(-c3cnn(C[C@@H](O)[C@@H](C)O)c3)cn3nccc23)cn1 [Example 59, (2R,3R)-1-(4-(4-(1-(pentan-3-yl)-1H-pyrazol-4-yl)pyrazolo[1,5-a]pyrazin-6-yl)-1H-pyrazol-l-yl)butane-2,3-diol] |
| 10 to 100 | – | 10 to 100 | 1000 to 10000 | 1000 to 10000 | CCC(CC)n1cc(-c2nc(-c3cnn(CC(C)(O)CO)c3)cn3nccc23)cn1 (centres unmarked) [Example 60, 2-methyl-3-(4-(4-(1-(pentan-3-yl)-1H-pyrazol-4-yl)pyrazolo[1,5-a]pyrazin-6-yl)-1H-pyrazol-1-yl)propane-1,2-diol] |
| 10 to 100 | – | 10 to 100 | 1000 to 10000 | 1000 to 10000 | CCC(CC)n1cc(-c2nc(-c3cnn(CCCS(C)(=O)=O)c3)cn3nccc23)cn1 [Example 7, 6-(1-(3-(methylsulfonyl)propyl)-1H-pyrazol-4-yl)-4-(l-(pentan-3-yl)-1H-pyrazol-4-yl)pyrazolo[1,5-a]pyrazine] |
| 10 to 100 | – | 10 to 100 | 1000 to 10000 | 1000 to 10000 | CCC(CC)n1cc(-c2nc(-c3cnn([C@@H]4CCNC[C@H]4O)c3)cn3nccc23)cn1 [Example 188, (3R,4R)-4-(4-(4-(1-(pentan-3-yl)-1H-pyrazol-4-yl)pyrazolo[1,5-a]pyrazin-6-yl)-1H-pyrazol-1-yl)piperidin-3-ol] |
| 10 to 100 | – | 10 to 100 | 1000 to 10000 | 100 to 1000 | CCC(CC)n1cc(-c2nc(-c3cnn(CC4CCOCC4)c3)cn3nccc23)cn1 [Example 4, 4-(1-(pentan-3-yl)-1H-pyrazol-4-yl)-6-(1-((tetrahydro-2H-pyran-4-yl)methyl)-1H-pyrazol-4-yl)pyrazolo[1,5-a]pyrazine] |
| 10 to 100 | – | 10 to 100 | 1000 to 10000 | 1000 to 10000 | CCC(CC)n1cc(-c2nc(-c3cnn(CCN4CCNCC4=O)c3)cn3nccc23)cn1 [Example 147, 1-(2-(4-(4-(1-(pentan-3-yl)-1H-pyrazol-4-yl)pyrazolo[1,5-a]pyrazin-6-yl)-1H-pyrazol-1-yl)ethyl)piperazin-2-one] |
| 10 to 100 | 10 to 100 | 10 to 100 | 1000 to 10000 | – | CCC(CC)n1cc(-c2nc(-c3cnn(C[C@@H](C)CO)c3)cn3nccc23)cn1 [Example 14, (R)-2-methyl-3-(4-(4-(1-(pentan-3-yl)-1H-pyrazol-4-yl)pyrazolo[1,5-a]pyrazin-6-yl)-1H-pyrazol-1-yl)propan-1-ol] |
